Experimental findings from patent publication US20230293535A1, “ERBB/BTK INHIBITORS” (Dizal (Jiangsu) Pharmaceutical Co., Ltd., priority 2018, published 2023) are described below.

One data set concerns rat hepatocytes. Nature of the data set: In vitro rat hepatocytes clearance assay. As to conditions: male rat hepatocytes, 1 µM-range incubation up to 100 min.
A further data set has as its system Ba/F3 EGFR ASV ins cells. Nature of the data set: Cell proliferation, Ba/F3 EGFR ASV ins (CellTiter-Glo, 72 h).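 Also: IL3-independent Ba/F3 cells transduced with EGFR V769_D770insASV, cellular ATP luminescence after compound exposure, growth relative to DMSO control with the day-0 baseline reading subtracted.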 The data set is classed as cell-based.
Data set [1] concerns the target T1, human EGFR exon 20 H773_V774insNPH (Homo sapiens, UniProt P00533, INS773NPH).
T1 construct: host or cells: Ba/F3
Nature of the data set: EGFR Exon20 NPH insertion cellular phosphorylation inhibition (MSD pEGFR Y1068/total EGFR).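 Also: IL3-independent Ba/F3 cells with constitutively phosphorylated EGFR, compound exposure at 37 °C under 5% CO2, electrochemiluminescent MSD measurement of the p-EGFR to total EGFR ratio.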 The data set is classed as cell-based. Conditions: Ba/F3 EGFR NPH ins cells, 4 h compound, p-EGFR(Y1068)/total EGFR.

The subject of another data set is WT EGFR cell line A-431. Nature of the data set: Cell proliferation, WT EGFR A431 (CellTiter-Glo, 72 h).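 Also: proliferation from a luminescent ATP viability signal, expressed as 100 × (treated minus time-zero plate) over (DMSO control minus time-zero plate), cells grown with 10% FBS.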 The data set is classed as cell-based.
The subject of data set [2] is NCI-H1975 EGFR L858R/T790M cells. As to the kind of experiment: Cell proliferation, NCI-H1975 EGFR L858R/T790M (CellTiter-Glo, 72 h).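 Also: viable cells quantified by luciferase-based ATP luminescence, proliferation expressed relative to DMSO-treated wells (100%) after subtracting a parallel plate read at the time of dosing.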 The data set is classed as cell-based.
The next data set concerns Ri-1 cells. Nature of the data set: BTK (wt) cell proliferation, Ri-1 (CellTiter-Glo, 72 h).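 Also: viable cells quantified as cellular ATP luminescence, proliferation normalized to a time-zero plate and the DMSO control, compounds tested across a dilution series.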 As to conditions: read-out: BTK WT Ri-1 GI50. Format: cell-based.
Another data set relates to DB cells. As to the kind of experiment: BTK (wt) cell proliferation, DB (CellTiter-Glo, 72 h).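 Also: DB cells in 384-well plates given a dilution series of compound, viable cells read by ATP luminescence, growth expressed versus DMSO control after subtracting a time-zero plate reading.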 Format: cell-based. As to conditions: read-out: Non-BCR activated DB GI50.
Another data set has as its system Ba/F3 EGFR NPH ins cells. As to the kind of experiment: Cell proliferation, Ba/F3 EGFR NPH ins (CellTiter-Glo, 72 h).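 Also: IL3-independent cells carrying constitutively phosphorylated EGFR, compound dilution series, viable cells quantified by ATP luminescence, growth relative to DMSO wells after subtracting pre-dosing (day 0) baseline.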 The data set is classed as cell-based.
Another data set concerns human hepatocytes. Nature of the data set: In vitro human hepatocytes clearance assay. As to conditions: mixed gender human hepatocytes, incubation up to 100 min.
The subject of the next data set is OCI-LY-10 cells. As to the kind of experiment: BTK (wt) cell proliferation, OCI-LY-10 (CellTiter-Glo, 72 h).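 Also: viable cells quantified via cellular ATP luminescence, proliferation given as percent of DMSO control after subtracting a duplicate plate read at time of dosing.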 As to conditions: read-out: BTK WT OCI-LY-10 GI50. The data set is classed as cell-based.
In the next data set the test system is TMD-8 cells. As to the kind of experiment: BTK (wt) cell proliferation, TMD-8 (CellTiter-Glo, 72 h).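 Also: viable cells quantified by ATP-based luminescence, proliferation expressed as percent of DMSO control after subtracting a time-zero baseline plate read at dosing.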 The data set is classed as cell-based. Conditions: read-out: BTK WT TMD-8 GI50.
Data set [3] has as its system Her2 exon 20 insertion YVMA transduced NIH-3T3 cell line. Nature of the data set: Cell proliferation, Her2 YVMAins NIH-3T3 (CellTiter-Glo, 72 h).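 Also: viable cells quantified by ATP luminescence, growth over a day-zero baseline plate expressed as percent of DMSO control growth, compound dilution series in 10% FBS medium.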 Format: cell-based.
Experimental: WT or mutant cells were seeded in 384 well plates at appropriate concentrations with corresponding growth media supplemented with 10% FBS, for each experiment, identical plates were prepared in duplicates, and the plates were incubated overnight. On the next day, one of each duplicated plates was dosed with tested compounds at a series of concentrations, and another one of the duplicated plate was analysied for G0 value. The dosed plates were incubate for another 72 h at 37° C. with 5% CO2 and the number of viable cells in each well of the G0 plates or the dosed plates were measured by CellTiter-Glo® Luminescent Cell Viability Assay (Promega). This assay is a luminescent method for determining the number viable cells through measurement of cellular ATP concentration by detection of luciferase activity. Detection reagents (15 µl) was dispensed into per well, and the plates were incubate for 30 min at room temperature. Then, the luminescence in each well was measured using the Envision plate reader (PerkinElmer). The percentage of proliferation was calculated based on the formula: %Proliferation= 100 × (G3 value of sample well-Go value)/(G3 value of DMSO control-Go value).
In the next data set the target is T2, EGFR L858R&T790M (Homo sapiens, UniProt P00533, L858R/T790M).
T2 construct: host or cells: NCI-H1975
Nature of the data set: EGFR L858R and T790M cellular phosphorylation inhibition in NCI-H1975 (MSD).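 Also: phosphorylated and total EGFR detected by electrochemiluminescence, cells exposed to compound in medium containing 1% FBS at 37 °C.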 As to conditions: NCI-H1975 cells, 4 h compound, p-EGFR(Y1068)/total EGFR; read-out: EGFR L858R and T790M mutation IC50. Format: cell-based.

Data set [4] addresses T3, human EGFR exon 20 V769_D770insASV (Homo sapiens, UniProt P00533, INS769ASV).
T3 construct: expressed in transfected cells; host or cells: Ba/F3 (DSMZ ACC-300), lentiviral transduction, puromycin selection, IL3 depletion
As to the kind of experiment: EGFR Exon20 ASV insertion cellular phosphorylation inhibition (MSD pEGFR Y1068/total EGFR).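 Also: electrochemiluminescent readout on an MSD SECTOR Imager, IL3-independent transduced cells in medium with 1% FBS, compound concentration series at 37 °C and 5% CO2.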 As to conditions: Ba/F3 EGFR ASV ins cells, 4 h compound, p-EGFR(Y1068)/total EGFR. The data set is classed as cell-based.
Experimental: To generate the EGFR exon 20 V769_D770insASV transduced Ba/F3 cell line, the parental Ba/F3 cells were infected with the recombinant EGFR V769_D770insASV lentivirus and then followed by 1 µg/ml of puromycin selection and IL3 depletion. The resulting cell line expresses constitutively phosphorylated EGFR protein and proliferates in the absence of IL3, which could be used for in vitro PD and anti-proliferation assays.
One day before the test, WT or mutant cells were seeded in 96 well plates at appropriate concentrations with corresponding growth media supplemented with 1% FBS, and incubated overnight. The next day, tested compounds at a series of concentrations were added into each individual well of the plates, and the plates were incubated for 4 h at 37° C. with 5% CO2.
The EGFR (Y1068) phosphorylation level (activity) of cells in each well were then measured with MSD kit named “MULTI-SPOT®96 4-Spot HB Prototype EGFR Triplex [sequence]: pEGFR(Tyr1068),pEGFR(Tyr1173), Total EGFR” according to the manufacturer’s instruction (MESO SCALE DISCOVERY, Cat# N45ZB-1). The assay is an electrochemiluminescent method for determining both phosphorylated and total EGFR of cells with an MSD SECTOR® Imager and the ratio of p-EGFR/total EGFR can be generated by the machine. The Her2 (Y1248) phosphorylation level (activity) of cells in each well were measured with MSD Kit named “Phospho-ErbB2 (Tyr1248) Assay Whole Cell Lysate Kit” according to the manufacturer’s instruction (MESO SCALE DISCOVERY, Cat# K151CLD-3). The assay is an electrochemiluminescent method (MESO SCALE DISCOVERY) for determining both phosphorylated and total Her2 of cells with an MSD SECTOR® Imager and then the ratio of p-Her2/total Her2 can be generated by the machine.

The next data set deals with T4, WT EGFR (Homo sapiens, UniProt P00533).
T4 construct: host or cells: A-431
As to the kind of experiment: WT EGFR cellular phosphorylation inhibition in A-431 (hEGF stimulated, MSD).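 Also: electrochemiluminescence read-out of EGFR Tyr1068 phosphorylation expressed as ratio to total EGFR, cells kept in medium with 1% FBS, compounds tested as a concentration series.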 The data set is classed as cell-based. As to conditions: A431 cells, 4 h compound, then 100 ng/ml hEGF 10 min.

Data set [5] addresses T5, human Her2 exon 20 insertion mutation YVMA (Homo sapiens, UniProt P04626, INS775YVMA).
T5 construct: expressed in transfected cells; host or cells: NIH-3T3, lentiviral transduction, puromycin selection
As to the kind of experiment: Her2 Exon 20 YVMA insertion cellular phosphorylation inhibition (MSD p-Her2 Y1248/total Her2).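 Also: lentivirally transduced NIH-3T3 cells in 1% FBS medium, electrochemiluminescent MSD read-out, graded compound concentrations at 37 °C.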 The data set is classed as cell-based. Conditions: Her2 YVMAins cells, 4 h compound.

Another data set deals with T6, Phospho-BTK (Tyr223) (Homo sapiens, UniProt Q06187).
T6 construct: endogenous in cells; host or cells: Ramos
As to the kind of experiment: p-BTK assay in Ramos cells (HTRF Phospho-BTK Tyr223). The data set is classed as cell-based. Conditions: pervanadate stimulated, read-out: p-BTK (Romas) IC50.

Data set [6] has as its target T7, BTK (Homo sapiens, UniProt Q06187). As to the kind of experiment: BTK target site occupancy ELISA (Ramos). Conditions: BTK receptor occupancy, read-out: Occupancy (Romas) IC50. Format: cell-based. Also on record: endogenous in cells; host or cells: Ramos.
Experimental: (§1) An enzyme-linked immunosorbent assay (ELISA) method for the detection of free uninhibited Btk in mouse and human lysates. Human or mouse whole blood were incubated with compound for 2 hour at 37° C. Whole blood were lysed in ice-cold lysis buffer containing 50 mM Tris-HCl, pH 7.5, 150 mM NaCl, 1 mM EDTA,1% Triton X-100. […] Samples were transferred to a streptavidin-coated 96-well ELISA plate and mixed while shaking for 1 hour at room temperature. The α-Btk antibody (1:500; clone number D3H5, Cell signaling Technology, Danvers, MA, USA) was then added to the well and incubated for 1 hour at room temperature. After wash, goat α-rabbit-FW (1:5000 dilution in PBS+ 0.05% Tween-20 + 1% BSA) was added to each well and incubated for 1 h at room temperature. The ELISA was developed with addition of tetramethyl benzidine (TMB) followed by Stop Solution and read at OD 450 nm.
Data set [7] addresses T7, BTK. As to the kind of experiment: BTK target site occupancy ELISA (PBMC). The data set is classed as cell-based. Conditions: BTK receptor occupancy.
Experimental: as §1
Data set [8] is described as follows: in vitro. Conditions: male, rat, hepatocytes, rat hepatocytes Clint (µL/min/10^6cells).
Experimental: (§2) The protocol for rat/human hepatocytes metabolic stability assay is employed to determine the clearance of the compounds of the present disclosure in vitro.
(§3) Rat hepatocytes in male gender and human hepatocytes in mixed gender were obtained from commercial vendors (e.g., BioreclamationIVT) and stored at -150° C. prior to use. 10 mM stock solutions of tested compounds were prepared in DMSO. Thawing medium and supplement incubation medium (serum-free) were placed in a 37° C. water bath for at least 15 minutes prior to use. Stock solutions were diluted to 100 µM by combining 198 µL acetonitrile and 2 µL of 10 mM stock solution.
(§4) Vials of cryopreserved hepatocytes were removed from storage, ensured that vials remain at cryogenic temperatures. The vials were thawed in a 37° C. water bath with gently shaking. Vials were kept in water bath until all ice crystals had dissolved and were no longer visible. Vials were sprayed with 70% ethanol before being transferred to a biosafety cabinet. And then the contents were poured into the 50 mL thawing medium conical tube. Vials were centrifuged at 100 g for 10 minutes at room temperature.
(§5) Cell viability and density were counted using a Trypan Blue exclusion, and then cells were diluted with serum-free incubation medium to a working cell density of 1 × 10^6 viable cells/ml. […] The inactivated hepatocytes were used to prepare negative samples, which were used to exclude the misleading factor that resulted from instability of chemical itself.
(§6) Aliquots of 247.5 µL hepatocytes were dispensed into each well of a 96-well non-coated plate. The plate was placed in the incubator on an orbital shaker for approximately 10 minutes. Aliquots of 2.5 µL of the 100 µM test compounds were added into respective wells of the non-coated 96-well plate to start the reaction. This assay was performed in duplicate. The plate was incubated in the incubator on an orbital shaker for the designed time points. […] Samples were centrifuges for 20 minutes at 4000 g and aliquots of 100 µL of the supernatants were used for LC-MS/MS analysis for measurement of test compounds
(§7) In vitro hepatocyte clearance was estimated based on determination of elimination half-life (T½) of compounds disappearance from their initial concentrations. Peak area ratios of each compound (test or control) to IS was calculated. Ln (%Control) versus Incubation Time (min) curve was plotted, and the slope of a linear fitting line was calculated.
Data set [9] in a line: in vitro. Conditions: both, human, hepatocytes, human hepatocytes Clint (µL/min/10^6cells).
Experimental: as §2, §3, §4, §5, §6, §7
[10] abbreviates: Ba/F3 EGFR ASV ins, 72 h proliferation, read-out: EGFR Exon20 ASV insertion GI50.
Where [11] appears, read: A431, 72 h proliferation, read-out: EGFR WT A431 GI50.
Setting [12] is: NCI-H1975, 72 h proliferation, read-out: EGFR L858R and T790M mutation GI50.
The mark [13] stands for this setting: Ri-1 cells, 72 h, CellTiter-Glo.
Where [14] appears, read: Ba/F3 EGFR NPH ins, 72 h proliferation, read-out: EGFR Exon20 NPH insertion GI50.
Setting [15] is: OCI-LY-10 cells, 72 h, CellTiter-Glo.
[16] abbreviates: TMD-8 cells, 72 h, CellTiter-Glo.
The mark [17] stands for this setting: Her2 YVMAins cells, 72 h proliferation, read-out: Her2 Exon 20 YVMA insertion GI50.

Like-named read-outs stand apart in the source and are kept apart here.

T5 sequence (P04626 with tags, fused parts or gaps INS775YVMA): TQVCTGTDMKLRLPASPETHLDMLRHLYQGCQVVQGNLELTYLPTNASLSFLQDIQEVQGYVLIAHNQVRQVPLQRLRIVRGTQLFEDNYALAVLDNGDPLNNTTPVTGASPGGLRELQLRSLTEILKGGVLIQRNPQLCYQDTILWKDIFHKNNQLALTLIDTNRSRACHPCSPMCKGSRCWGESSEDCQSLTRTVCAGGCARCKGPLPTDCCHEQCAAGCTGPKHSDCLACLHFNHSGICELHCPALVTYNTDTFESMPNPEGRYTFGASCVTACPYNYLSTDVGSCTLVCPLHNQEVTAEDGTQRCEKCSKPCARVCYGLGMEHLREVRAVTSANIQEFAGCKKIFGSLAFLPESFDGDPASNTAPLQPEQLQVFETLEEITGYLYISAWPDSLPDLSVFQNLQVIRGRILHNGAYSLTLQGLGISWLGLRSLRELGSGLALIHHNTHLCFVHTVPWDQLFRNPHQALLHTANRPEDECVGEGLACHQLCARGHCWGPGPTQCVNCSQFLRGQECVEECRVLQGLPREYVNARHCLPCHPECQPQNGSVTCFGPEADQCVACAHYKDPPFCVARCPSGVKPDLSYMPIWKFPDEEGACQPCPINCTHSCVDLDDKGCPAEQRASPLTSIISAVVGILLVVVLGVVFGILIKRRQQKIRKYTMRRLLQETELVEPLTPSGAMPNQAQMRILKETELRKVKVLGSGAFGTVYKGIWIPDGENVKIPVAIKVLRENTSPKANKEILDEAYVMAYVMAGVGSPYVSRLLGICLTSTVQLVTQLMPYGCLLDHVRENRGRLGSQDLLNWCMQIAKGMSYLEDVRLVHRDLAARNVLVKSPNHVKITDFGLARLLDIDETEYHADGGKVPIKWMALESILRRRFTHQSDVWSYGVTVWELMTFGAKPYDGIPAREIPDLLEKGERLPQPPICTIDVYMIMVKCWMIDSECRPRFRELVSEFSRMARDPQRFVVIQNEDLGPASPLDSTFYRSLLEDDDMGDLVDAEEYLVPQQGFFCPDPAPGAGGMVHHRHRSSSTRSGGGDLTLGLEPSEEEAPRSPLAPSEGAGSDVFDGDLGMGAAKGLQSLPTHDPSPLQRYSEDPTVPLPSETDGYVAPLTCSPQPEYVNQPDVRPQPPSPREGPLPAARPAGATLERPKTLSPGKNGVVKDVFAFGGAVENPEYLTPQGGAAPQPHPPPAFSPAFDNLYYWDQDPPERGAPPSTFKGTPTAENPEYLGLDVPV
T4 sequence (P00533 25-1210): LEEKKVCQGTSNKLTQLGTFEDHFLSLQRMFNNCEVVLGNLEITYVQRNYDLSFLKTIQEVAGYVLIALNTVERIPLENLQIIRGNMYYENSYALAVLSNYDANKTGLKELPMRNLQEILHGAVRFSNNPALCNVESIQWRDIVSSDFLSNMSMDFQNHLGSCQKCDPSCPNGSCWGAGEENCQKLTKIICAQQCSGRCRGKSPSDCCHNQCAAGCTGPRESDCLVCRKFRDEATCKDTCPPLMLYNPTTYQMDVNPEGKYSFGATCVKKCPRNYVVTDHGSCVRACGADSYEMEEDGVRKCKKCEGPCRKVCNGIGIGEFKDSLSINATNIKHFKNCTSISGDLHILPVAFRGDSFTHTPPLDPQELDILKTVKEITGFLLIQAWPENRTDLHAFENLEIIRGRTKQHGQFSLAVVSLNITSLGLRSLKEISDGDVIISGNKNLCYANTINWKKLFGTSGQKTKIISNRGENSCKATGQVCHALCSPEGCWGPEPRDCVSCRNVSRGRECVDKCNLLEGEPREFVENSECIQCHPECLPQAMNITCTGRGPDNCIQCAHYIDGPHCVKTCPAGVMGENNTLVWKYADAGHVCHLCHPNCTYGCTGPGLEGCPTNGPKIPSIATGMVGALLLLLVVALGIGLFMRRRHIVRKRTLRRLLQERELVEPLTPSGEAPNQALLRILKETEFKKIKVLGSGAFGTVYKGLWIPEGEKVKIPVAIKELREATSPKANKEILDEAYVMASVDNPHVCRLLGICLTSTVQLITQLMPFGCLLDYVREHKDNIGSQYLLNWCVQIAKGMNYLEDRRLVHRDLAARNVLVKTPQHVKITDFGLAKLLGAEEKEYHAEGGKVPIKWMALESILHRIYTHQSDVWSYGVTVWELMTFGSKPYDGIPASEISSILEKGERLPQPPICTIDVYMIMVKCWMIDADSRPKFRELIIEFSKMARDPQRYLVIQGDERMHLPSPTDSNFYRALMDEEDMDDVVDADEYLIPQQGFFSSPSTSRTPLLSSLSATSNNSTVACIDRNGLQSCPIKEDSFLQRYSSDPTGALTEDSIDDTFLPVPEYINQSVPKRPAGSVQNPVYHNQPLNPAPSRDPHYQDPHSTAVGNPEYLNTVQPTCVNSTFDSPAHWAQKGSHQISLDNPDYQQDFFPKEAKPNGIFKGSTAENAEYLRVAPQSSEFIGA
T1 sequence (P00533 with tags, fused parts or gaps INS773NPH): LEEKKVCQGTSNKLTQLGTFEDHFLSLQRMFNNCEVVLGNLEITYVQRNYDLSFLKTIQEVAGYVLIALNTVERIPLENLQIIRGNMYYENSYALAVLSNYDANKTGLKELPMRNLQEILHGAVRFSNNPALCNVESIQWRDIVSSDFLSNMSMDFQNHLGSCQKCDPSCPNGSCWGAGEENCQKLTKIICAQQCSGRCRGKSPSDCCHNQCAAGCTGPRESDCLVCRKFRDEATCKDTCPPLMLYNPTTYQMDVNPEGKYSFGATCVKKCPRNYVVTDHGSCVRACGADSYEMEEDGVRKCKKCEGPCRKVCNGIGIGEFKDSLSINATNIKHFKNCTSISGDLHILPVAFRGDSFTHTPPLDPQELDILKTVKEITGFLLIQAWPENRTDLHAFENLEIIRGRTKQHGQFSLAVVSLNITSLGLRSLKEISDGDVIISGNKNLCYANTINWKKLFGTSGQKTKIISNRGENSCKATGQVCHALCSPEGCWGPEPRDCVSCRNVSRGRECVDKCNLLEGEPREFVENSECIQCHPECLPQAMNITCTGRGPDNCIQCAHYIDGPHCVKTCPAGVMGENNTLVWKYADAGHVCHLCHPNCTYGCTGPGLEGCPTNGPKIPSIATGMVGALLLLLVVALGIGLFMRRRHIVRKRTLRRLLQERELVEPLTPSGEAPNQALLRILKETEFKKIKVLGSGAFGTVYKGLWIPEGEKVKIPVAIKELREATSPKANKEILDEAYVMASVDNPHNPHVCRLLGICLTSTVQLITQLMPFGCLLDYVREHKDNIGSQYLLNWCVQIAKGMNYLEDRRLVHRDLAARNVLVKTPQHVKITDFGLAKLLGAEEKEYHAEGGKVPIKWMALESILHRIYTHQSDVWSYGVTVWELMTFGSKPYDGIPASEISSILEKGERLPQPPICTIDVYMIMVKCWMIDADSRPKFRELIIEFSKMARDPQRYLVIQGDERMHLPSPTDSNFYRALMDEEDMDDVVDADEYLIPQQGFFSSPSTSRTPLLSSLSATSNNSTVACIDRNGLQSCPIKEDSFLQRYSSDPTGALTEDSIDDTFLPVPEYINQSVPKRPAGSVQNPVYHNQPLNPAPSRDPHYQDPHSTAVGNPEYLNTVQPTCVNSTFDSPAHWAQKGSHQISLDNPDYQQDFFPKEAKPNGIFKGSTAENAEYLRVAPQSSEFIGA
T3 sequence (P00533 with tags, fused parts or gaps INS769ASV): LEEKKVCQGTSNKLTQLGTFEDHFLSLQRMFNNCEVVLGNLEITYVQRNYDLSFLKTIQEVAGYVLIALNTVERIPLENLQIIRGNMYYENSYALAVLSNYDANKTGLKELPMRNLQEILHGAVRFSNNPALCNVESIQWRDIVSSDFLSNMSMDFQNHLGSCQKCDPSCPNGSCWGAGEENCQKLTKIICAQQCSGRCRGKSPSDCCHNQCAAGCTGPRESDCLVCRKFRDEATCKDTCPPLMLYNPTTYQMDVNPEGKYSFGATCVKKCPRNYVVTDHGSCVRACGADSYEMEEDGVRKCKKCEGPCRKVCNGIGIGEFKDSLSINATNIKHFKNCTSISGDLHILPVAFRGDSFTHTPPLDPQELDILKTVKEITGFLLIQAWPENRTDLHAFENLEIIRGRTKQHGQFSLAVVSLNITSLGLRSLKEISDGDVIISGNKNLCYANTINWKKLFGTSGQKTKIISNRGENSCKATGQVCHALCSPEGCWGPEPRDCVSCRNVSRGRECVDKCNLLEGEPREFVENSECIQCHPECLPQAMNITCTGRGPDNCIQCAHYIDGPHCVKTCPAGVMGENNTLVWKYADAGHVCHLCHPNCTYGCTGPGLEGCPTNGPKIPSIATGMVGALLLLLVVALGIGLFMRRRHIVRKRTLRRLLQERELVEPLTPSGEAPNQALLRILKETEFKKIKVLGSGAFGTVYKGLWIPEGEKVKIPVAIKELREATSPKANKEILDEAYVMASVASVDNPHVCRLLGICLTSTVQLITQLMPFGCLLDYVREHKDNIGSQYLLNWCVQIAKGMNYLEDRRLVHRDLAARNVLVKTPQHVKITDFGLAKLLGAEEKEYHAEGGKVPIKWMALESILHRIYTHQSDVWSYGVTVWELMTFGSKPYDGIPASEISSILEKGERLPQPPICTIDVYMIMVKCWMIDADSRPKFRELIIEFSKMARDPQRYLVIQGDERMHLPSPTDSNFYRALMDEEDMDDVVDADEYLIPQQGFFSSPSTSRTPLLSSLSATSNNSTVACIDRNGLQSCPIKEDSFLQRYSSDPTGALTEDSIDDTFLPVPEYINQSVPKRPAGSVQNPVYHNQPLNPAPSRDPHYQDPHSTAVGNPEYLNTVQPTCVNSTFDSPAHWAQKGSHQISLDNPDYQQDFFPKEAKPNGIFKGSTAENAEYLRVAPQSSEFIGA
Experimental for Phospho-BTK (Tyr223): The assay plates were then incubated for 30 minutes at 37° C., 5% CO2. 300 uM Per vanadate (3X) was added to each well and the assay plates were again incubated for 60 minutes at 37° C., 5% CO2. Phospho-BTK (Tyr223) is detected using the HTRF® reagents (Cisbio) according to the manufacturer’s one-plate assay protocol.
Experimental for human hepatocytes: as §2, §3, §4, §5, §6, §7
Experimental for rat hepatocytes: as §2, §3, §4, §5, §6, §7

Regarding `C=CC(=O)Nc1cc(Nc2ncnc(Nc3cc(Cl)c(F)cc3C(C)(O)CC)n2)c(OC)cc1N1CC[C@@H](N(C)C)C1` (single isomer, unassigned) [Compound 70, N-(5-(4-(5-chloro-4-fluoro-2-((R)-2-hydroxybutan-2-yl)phenylamino)-1,3,5-triazin-2-ylamino)-2-((R)-3-(dimethylamino)pyrrolidin-1-yl)-4-methoxyphenyl)acrylamide or N-(5-(4-(5-chloro-4-fluoro-2-((S)-2-hydroxybutan-2-yl)phenylamino)-1,3,5-triazin-2-ylamino)-2-((R)-3-(dimethylamino)pyrrolidin-1-yl)-4-methoxyphenyl)acrylamide], in the data set on rat hepatocytes, the “rat hepatocytes Clint (µL/min/10^6cells)” value is 12.9 µL/min/10^6cells. Besides, the GI50 with Ba/F3 EGFR ASV ins cells (setting [10]) was 65.4 nM; with WT EGFR cell line A-431 (setting [11]), 15.4 nM; in data set [2] (setting [12]) it was 9.1 nM; in the data set on Ri-1 cells (setting [13]) it was 88.9 nM; with DB cells (DB cells, CellTiter-Glo), over 3000 nM; in the data set with Ba/F3 EGFR NPH ins cells (setting [14]), 65.8 nM. Besides, the 50% growth inhibitory concentration (GI50) in the data set on OCI-LY-10 cells (setting [15]) is 22.2 nM; in the data set on TMD-8 cells (setting [16]), 10.2 nM; in data set [3] (setting [17]), 72 nM. The IC50 in data set [1] turned out to be 67.5 nM; at EGFR L858R&T790M, 1.5 nM; in [4], 22.3 nM; against WT EGFR it was 71.2 nM; in data set [5], 15.7 nM. Also, the “human hepatocytes Clint (µL/min/10^6cells)” value with human hepatocytes is 3.69 µL/min/10^6cells.
Consider `C=CC(=O)Nc1cc(Nc2nccc(Nc3cc(Cl)c(F)cc3C(C)(O)CC)n2)c(OC)cc1N1CC[C@@H](N(C)C)C1` (single isomer, unassigned) [Compound 77, N-(5-(4-(5-chloro-4-fluoro-2-((R)-2-hydroxybutan-2-yl)phenylamino)pyrimidin-2-ylamino)-2-((R)-3-(dimethylamino)pyrrolidin-1-yl)-4-methoxyphenyl) acrylamide or N-(5-(4-(5-chloro-4-fluoro-2-((S)-2-hydroxybutan-2-yl)phenylamino)pyrimidin-2-ylamino)-2-((R)-3-(dimethylamino)pyrrolidin-l-yl)-4-methoxyphenyl) acrylamide], for which the “rat hepatocytes Clint (µL/min/10^6cells)” value in the data set with rat hepatocytes came to 15.8 µL/min/10^6cells. In addition, the IC50 on Phospho-BTK (Tyr223) is 1.6 nM; in [1], 44.8 nM; at BTK [6] it was 0.49 nM; on EGFR L858R&T790M it was 1.7 nM; in data set [4], 50.8 nM; against WT EGFR, 303 nM. In addition, the IC50 on BTK [7] turned out to be 1.7 nM; in data set [5], 21.5 nM. Moreover, the GI50 in the data set on Ba/F3 EGFR ASV ins cells (setting [10]) was 102 nM; with WT EGFR cell line A-431 (setting [11]), 32.4 nM; in [2] (setting [12]), 3.6 nM; in the data set on Ri-1 cells (setting [13]), 1.55 nM; with DB cells (DB cells, CellTiter-Glo), 1750 nM; in the data set on Ba/F3 EGFR NPH ins cells (setting [14]) it was 81.9 nM. Further, the values for the GI50 (in the data set with OCI-LY-10 cells (setting [15]); with TMD-8 cells (setting [16]); in data set [3] (setting [17])) were 1.23 nM, 1.19 nM and 109 nM, respectively. For the same molecule, in the data set on human hepatocytes, the “human hepatocytes Clint (µL/min/10^6cells)” value came to 7.87 µL/min/10^6cells.
For the molecule `C=CC(=O)Nc1cc(Nc2ncnc(Nc3cc(Cl)c(F)cc3C(C)(O)CC)n2)c(OC)cc1N1CC[C@@H](N(C)C)C1` (stereo partly drawn) [Compound 59, N-(5-(4-(5-chloro-4-fluoro-2-(2-hydroxybutan-2-yl)phenylamino)-1,3,5-triazin-2-ylamino)-2-((R)-3-(dimethylamino)pyrrolidin-1-yl)-4-methoxyphenyl) acrylamide], the GI50 in the data set with Ba/F3 EGFR ASV ins cells (Ba/F3 EGFR, 72 h, read-out: EGFR Exon20 ASV insertion GI50 (nM)) is 29.8 nM; with WT EGFR cell line A-431 (Homo sapiens, A-431, 72 h, read-out: EGFR WT A431 GI50 (nM)), 10.7 nM; in data set [2] (Homo sapiens, NCI-H1975, 72 h, read-out: EGFR L858R and T790M mutation GI50 (nM)) it was 2 nM; in the data set on Ri-1 cells (Ri-1, 72 h), 26.9 nM; in the data set on DB cells (Homo sapiens, DB), over 3000 nM; with Ba/F3 EGFR NPH ins cells (Ba/F3 EGFR, 72 h, read-out: EGFR Exon20 NPH insertion GI50 (nM)), 29.1 nM. In addition, the GI50 in the data set with OCI-LY-10 cells (Homo sapiens, OCI-Ly10, 72 h) stood at 17.1 nM; in the data set on TMD-8 cells (Homo sapiens, TMD8, 72 h), 4.78 nM; in [3] (Mus musculus, NIH3T3, 72 h, read-out: Her2 Exon 20 YVMA insertion GI50 (nM)), 62.2 nM. The IC50 in data set [1] is 16.4 nM; at EGFR L858R&T790M, 0.5 nM; in data set [4], 13.3 nM; against WT EGFR, 25.7 nM; in data set [5] it was 3.5 nM. The hepatocyte CLint at 1 µM in the data set “in vitro [8]” came to 14.1 µL/min/1e6 cells; in the data set “in vitro [9]”, 3.75 µL/min/1e6 cells.
